Experiments:
MOLT-4 = test: Antiproliferative activity against human MOLT4 cells after 48 hrs by Coulter counting analysis; type: functional, cell-based; conditions: MOLT-4, 48 h
HeLa = test: Antiproliferative activity against human HeLa cells after 48 hrs by Coulter counting analysis; type: functional, cell-based
CCRF-CEM = test: Antiproliferative activity against human CEM cells after 48 hrs by Coulter counting analysis; type: cell-based
L1210 = test: Antiproliferative activity against mouse L1210 cells after 48 hrs by Coulter counting analysis; type: functional, cell-based; conditions: L1210, 48 h
FM3A = test: Antiproliferative activity against mouse FM3A cells after 48 hrs by Coulter counting analysis; type: functional, cell-based

Row | SMILES | IC50 (MOLT-4) | IC50 (HeLa) | IC50 (CCRF-CEM) | IC50 (L1210) | IC50 (FM3A)
1 | COc1cccc(/C=C/C(=O)c2ccc(N)cc2)c1 | 21 µM | 19 µM | 23 µM | 22 µM | 45 µM
2 | C=C(Br)C(=O)Nc1ccc(/C=C/C(=O)c2ccc(F)cc2)cc1 | 0.66 µM | 1.4 µM | 1.1 µM | 1.6 µM | 1.2 µM
3 | C=C(Br)C(=O)Nc1ccc(C(=O)/C=C/c2cc(OC)c(OC)c(OC)c2)cc1 | 0.28 µM | 0.42 µM | 0.33 µM | 1.5 µM | 1.8 µM
4 | C=C(Br)C(=O)Nc1ccc(/C=C/C(=O)c2ccc(C)cc2)cc1 | 1.7 µM | 2.1 µM | 1.8 µM | 1.9 µM | 2.1 µM
5 | Nc1ccc(/C=C/C(=O)c2ccccc2)cc1 | 10 µM | 36 µM | 34 µM | 88 µM | 146 µM
6 | Nc1ccc(/C=C/C(=O)c2ccc(F)cc2)cc1 | 12 µM | 40 µM | 39 µM | 123 µM | 185 µM
7 | C=C(Br)C(=O)Nc1ccc(/C=C/C(=O)c2ccc(I)cc2)cc1 | 2.8 µM | 7.7 µM | 4 µM | 3.4 µM | 8.3 µM
8 | C=C(Br)C(=O)Nc1ccc(/C=C/C(=O)c2cc(OC)c(OC)c(OC)c2)cc1 | 0.85 µM | 1.1 µM | 1.1 µM | 0.91 µM | 0.95 µM
9 | CCOc1ccc(C(=O)/C=C/c2ccc(N)cc2)cc1 | 11 µM | 41 µM | 15 µM | 21 µM | 55 µM
10 | COc1cc(/C=C/C(=O)c2ccc(N)cc2)cc(OC)c1 | 7.5 µM | 7.9 µM | 5.7 µM | 6 µM | 12 µM
11 | COc1ccc(/C=C/C(=O)c2ccc(N)cc2)cc1 | 8.6 µM | 8.7 µM | 14 µM | 18 µM | 35 µM
12 | COc1cc(C(=O)/C=C/c2ccc(N)cc2)cc(OC)c1OC | 1.5 µM | 1.9 µM | 2.5 µM | 14 µM | 36 µM
13 | Nc1ccc(/C=C/C(=O)c2cccs2)cc1 | 13 µM | 15 µM | 27 µM | 87 µM | 123 µM
14 | C=C(Br)C(=O)Nc1ccc(C(=O)/C=C/c2ccc(OC)c(OC)c2)cc1 | 1.8 µM | 0.77 µM | 1.6 µM | 1.3 µM | 1.2 µM
15 | C=C(Br)C(=O)Nc1ccc(/C=C/C(=O)c2ccc(Cl)c(Cl)c2)cc1 | 1.8 µM | 3.2 µM | 1.7 µM | 2.1 µM | 3.2 µM
16 | C=C(Br)C(=O)O |  |  |  | > 120 µM | 
17 | Nc1ccc(C(=O)/C=C/c2ccccc2)cc1 | 7.9 µM | 7.7 µM | 8.5 µM | 14 µM | 34 µM
18 | COc1ccc(/C=C/C(=O)c2ccc(N)cc2)c(OC)c1OC | 10 µM | 8.2 µM | 9.7 µM | 25 µM | 29 µM
19 | Cc1ccc(C(=O)/C=C/c2ccc(N)cc2)cc1 | 12 µM | 40 µM | 31 µM | 49 µM | 107 µM

Row | SMILES | IC50 (MOLT-4) | IC50 (HeLa) | IC50 (CCRF-CEM) | IC50 (L1210) | IC50 (FM3A)
20 | C=C(Br)C(=O)Nc1ccc(C(=O)/C=C/c2ccc(OC)cc2OC)cc1 | 1.5 µM | 1.1 µM | 1.1 µM | 0.52 µM | 1.2 µM
21 | COc1ccc(C(=O)/C=C/c2ccc(N)cc2)cc1 | 19 µM | 98 µM | 37 µM | 160 µM | 282 µM
22 | Nc1ccc(/C=C/C(=O)c2ccc(I)cc2)cc1 | 7.5 µM | 58 µM | 16 µM | 50 µM | 110 µM
23 | CN(C)c1ccc(/C=C/C(=O)c2ccc(N)cc2)cc1 | 9.9 µM | 28 µM | 20 µM | 67 µM | 96 µM
24 | C=C(Br)C(=O)Nc1ccc(/C=C/C(=O)c2ccc(OC)cc2)cc1 | 1.3 µM | 1.4 µM | 1.4 µM | 0.98 µM | 1.2 µM
25 | Nc1ccc(/C=C/C(=O)c2ccc(Cl)c(Cl)c2)cc1 | 13 µM | 31 µM | 15 µM | 26 µM | 33 µM
26 | Nc1ccc(/C=C/C(=O)c2ccc(Br)cc2)cc1 | 10 µM | 49 µM | 14 µM | 90 µM | 120 µM
27 | C=C(Br)C(=O)Nc1ccc(C(=O)/C=C/c2cc(OC)cc(OC)c2)cc1 | 1.5 µM | 1.7 µM | 2.2 µM | 2.7 µM | 2 µM
28 | COc1cc(/C=C/C(=O)c2ccc(N)cc2)cc(OC)c1OC | 5.6 µM | 6.9 µM | 2.3 µM | 7.8 µM | 8.8 µM
29 | C=C(Br)C(=O)Nc1ccc(/C=C/C(=O)c2ccccc2)cc1 | 3.1 µM | 3.9 µM | 4 µM | 5 µM | 3.9 µM
30 | COc1ccc(/C=C/C(=O)c2ccc(N)cc2)cc1OC | 8.6 µM | 7.8 µM | 9.3 µM | 25 µM | 35 µM
31 | C=C(Br)C(=O)Nc1ccc(/C=C/C(=O)c2cccc(OC)c2)cc1 | 0.85 µM | 0.7 µM | 2.3 µM | 2.1 µM | 2.7 µM
32 | C=C(Br)C(=O)Nc1ccc(C(=O)/C=C/c2cccc(OC)c2)cc1 | 1.1 µM | 0.5 µM | 1.8 µM | 1.1 µM | 1.8 µM
33 | Nc1ccc(/C=C/C(=O)c2ccc(Cl)cc2)cc1 | 7.8 µM | 43 µM | 21 µM | 111 µM | 178 µM
34 | COc1ccc(/C=C/C(=O)c2ccc(N)cc2)c(OC)c1 | 20 µM | 22 µM | 18 µM | 34 µM | 43 µM
35 | C=C(Br)C(=O)Nc1ccc(/C=C/C(=O)c2ccc(Cl)cc2)cc1 | 0.81 µM | 1.6 µM | 0.95 µM | 1.1 µM | 1.3 µM
36 | C=C(Br)C(=O)Nc1ccc(/C=C/C(=O)c2cccc3ccccc23)cc1 | 2.1 µM | 2 µM | 3.1 µM | 1.1 µM | 2.4 µM
37 | COc1cccc(C(=O)/C=C/c2ccc(N)cc2)c1 | 20 µM | 33 µM | 26 µM | 38 µM | 43 µM
38 | Nc1ccc(/C=C/C(=O)c2cccc3ccccc23)cc1 | 12 µM | 18 µM | 22 µM | 32 µM | 41 µM
